Series [1] deals with Mus musculus. Briefly: Protection against imiquimod-induced skin inflammation in BALB/c mouse psoriasis model assessed as decrease in ear thickness administered topically at 25 mg qd treated for 1 hr before IMQ application measured at day 5. It is filed as functional, organism-based.
In series [2] the test system is Mus musculus. The series can be described thus: Protection against imiquimod-induced skin inflammation in BALB/c mouse psoriasis model assessed as decrease in scaling administered topically at 25 mg qd treated for 1 hr before IMQ application measured at day 5. It is filed as functional, organism-based.
Series [3] in a line: Metabolic stability in mouse liver microsomes assessed as parent compound remaining at 1 uM preincubated for 5 mins followed by NADPH addition after 30 mins by LC-MS/MS analysis. It is filed as ADME, Microsome. The settings on record: read-out: Stability. (In general: Liver microsomes are a subcellular fraction often used to study metabolism.)
The nature of series [4]: Metabolic stability in rat liver microsomes assessed as parent compound remaining at 1 uM preincubated for 5 mins followed by NADPH addition after 30 mins by LC-MS/MS analysis. It is filed as ADME, Microsome. Conditions: read-out: Stability.
The nature of series [5]: Metabolic stability in human liver microsomes assessed as parent compound remaining at 1 uM preincubated for 5 mins followed by NADPH addition after 30 mins by LC-MS/MS analysis. Conditions: read-out: Stability. It is filed as ADME, Microsome.
Series [6] concerns the target T1, Nuclear receptor ROR-gamma (Homo sapiens) (UniProt P51449).
T1 sequence (whole entry): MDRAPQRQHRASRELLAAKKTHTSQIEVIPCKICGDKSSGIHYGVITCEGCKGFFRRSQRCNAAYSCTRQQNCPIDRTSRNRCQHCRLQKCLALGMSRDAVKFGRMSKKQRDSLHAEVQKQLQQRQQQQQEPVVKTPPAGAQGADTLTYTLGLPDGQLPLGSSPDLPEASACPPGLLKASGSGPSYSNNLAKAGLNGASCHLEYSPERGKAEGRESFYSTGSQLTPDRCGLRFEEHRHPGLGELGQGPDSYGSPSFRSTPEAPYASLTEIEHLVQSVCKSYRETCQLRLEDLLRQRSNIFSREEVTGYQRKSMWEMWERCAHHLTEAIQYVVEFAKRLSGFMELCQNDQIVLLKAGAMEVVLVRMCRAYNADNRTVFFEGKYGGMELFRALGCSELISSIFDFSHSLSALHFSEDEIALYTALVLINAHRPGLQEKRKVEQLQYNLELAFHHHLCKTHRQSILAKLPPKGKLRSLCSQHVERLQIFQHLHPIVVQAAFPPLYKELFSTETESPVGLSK
The series can be described thus: Transactivation of recombinant GAL4-DBD fused RORgammat LBD (unknown origin) expressed in HEK293T cells at 10 uM incubated for 18 to 24 hrs by dual-Glo luciferase assay relative to control. It is filed as cell-based.

For series [7], the target named is T2, Nuclear receptor ROR-gamma (Mus musculus) (UniProt P51450).
T2 sequence (whole entry): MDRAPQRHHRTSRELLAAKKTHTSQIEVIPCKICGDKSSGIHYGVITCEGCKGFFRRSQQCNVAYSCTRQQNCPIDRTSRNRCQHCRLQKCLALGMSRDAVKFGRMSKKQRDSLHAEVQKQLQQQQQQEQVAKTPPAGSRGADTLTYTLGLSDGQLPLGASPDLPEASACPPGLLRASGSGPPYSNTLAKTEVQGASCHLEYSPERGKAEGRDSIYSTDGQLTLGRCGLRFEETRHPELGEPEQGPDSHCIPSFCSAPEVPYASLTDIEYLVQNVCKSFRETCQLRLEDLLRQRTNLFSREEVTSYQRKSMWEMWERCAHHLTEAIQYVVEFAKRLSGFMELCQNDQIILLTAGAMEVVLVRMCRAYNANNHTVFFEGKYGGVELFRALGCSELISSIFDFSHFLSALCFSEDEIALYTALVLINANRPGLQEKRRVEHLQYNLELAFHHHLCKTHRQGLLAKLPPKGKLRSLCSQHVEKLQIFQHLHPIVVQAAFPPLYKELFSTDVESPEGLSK
Briefly: Transrepression of RORgammat in Balb/c mouse splenocytes assessed as inhibition of anti-CD3/anti-CD28 stimulated IL-17 gene expression at 3 uM measured after 24 hrs in presence of anti-CD3/anti-CD28. It is filed as cell-based.

The target of series [8] is T2, Nuclear receptor ROR-gamma (Mus musculus). The series can be described thus: Transrepression of RORgammat in Balb/c mouse splenocytes assessed as inhibition of anti-CD3/anti-CD28 stimulated IL-17 gene expression at 30 uM measured after 24 hrs in presence of anti-CD3/anti-CD28. It is filed as cell-based.
For series [9] the target is unchanged. Briefly: Transrepression of RORgammat in Balb/c mouse splenocytes assessed as inhibition of anti-CD3/anti-CD28 stimulated IL-17 gene expression at 0.3 uM measured after 24 hrs in presence of anti-CD3/anti-CD28. It is filed as cell-based.

Activity calls are given as the source filed them. The rule behind the calls is not given here.

The values below come from ChEMBL document CHEMBL4346735, “Discovery and pharmacological evaluation of indole derivatives as potent and selective RORγt inverse agonist for multiple autoimmune conditions” (Bioorg Med Chem Lett, 2019).

As to `C[C@H]1C[C@H]2[C@@H]3CCC4=CC(=O)C=C[C@]4(C)[C@@]3(F)[C@@H](O)C[C@]2(C)[C@@]1(O)C(=O)CO`, the outcome in the series on Mus musculus [1] and with Mus musculus [2] was Active.
As usually defined, the inhibition is the change of the read-out against control, counted positive when it falls. Consider `O=C(O)c1ccc(-n2cc(C(=O)c3c(Cl)cccc3Cl)c3ncccc32)cc1`, for which the figures for the remaining at 0.5 h, 1 µM in series [3], in series [4] and in series [5] were 100%, 96% and 94%, respectively. The inhibition in series [6] turned out to be 3%.
For `O=C(O)c1ccc(-n2cc(C(=O)c3c(Cl)cccc3C(F)(F)F)c3cccc(F)c32)cc1`, the remaining at 0.5 h, 1 µM stood at 88% in series [3], 100% in series [4] and 88% in [5]. The values for the inhibition in series [7], in series [8] and in series [9] were 46%, 55% and 18%, respectively.
